Measured values published in ChEMBL document CHEMBL4819041 (J Med Chem, 2021).

What was measured:
Assay type in all cases: organism-based
Conditions in all cases: in vivo
[1] = Toxicity in Balb/c nude mouse xenografted with human MDA-MB-231 cells assessed as dose toleration at 20 mg/kg, ip QD
[2] = Toxicity in Balb/c nude mouse xenografted with human MDA-MB-231 cells assessed as change in body weight at 20 mg/kg, ip QD
[3] = Toxicity in Balb/c nude mouse xenografted with human MDA-MB-231 cells assessed as adverse effect at 20 mg/kg, ip QD
[4] = Toxicity in Balb/c nude mouse xenografted with human MDA-MB-231 cells assessed as normal feeding at 20 mg/kg, ip QD
[5] = Toxicity in Balb/c nude mouse xenografted with human MDA-MB-231 cells assessed as normal inquisitiveness at 20 mg/kg, ip QD

Measured: Activity

CNCc1ccccc1CN(CC(=O)Nc1ccc2c(c1)CC1(C2)C(=O)Nc2ncccc21)C(=O)C(C)(C)C (stereo not given)
Non-Toxic: [1] | [2] | [3] | [4] | [5]
